Structures are written as SMILES.

In one test the target is T1, cdc42 (Homo sapiens, UniProt P60953).
T1 construct: made in house
The experiment in a line: Cdc42 GTP Binding Domain Inhibition Assay. The note with it: read-out: Cdc42: % inh. How it is done: (§1) Protocol for Cdc42 and Rheb GTP Binding Domain Inhibition Assay
(§2) The following method was developed as specific assay for cdc42 and Rheb proteins.
(§3) • 25 mM Tris-HCl, pH 7.4 • 27 mM KCl • 137 mM NaCl • 1 mM MgCl2 • 1 mM DTT Buffer-II: • 50 mM Tris-HCl, pH 7.0 • 1 mM MgCl2 • 1 mM DTT
(§4) The small GTPases proteins cdc42 and Rheb were expressed as His-tagged proteins. For the assay, the cdc42 and Rheb purified small GTPases proteins were diluted in Buffer-I or Buffer-II to a final concentration of 10-30 μg/mL. 200 μL of each diluted protein was added to a nickel-coated 96-well plate and incubated overnight at […]. Then the protein solution was discarded and 200 μL of Buffer-I or Buffer-II was added to each well in the presence of 1% DMSO. Compounds to be tested were added to the protein-coated wells at final concentration of 20 μM, and incubated for 3 hours at room temperature with and without 10-30 μg/mL of Sos added to the final hour of the incubation. When performing IC50 measurements a serial dilution of all tested concentrations was added. Then Cy3-GTP or Cy5-GTP was added to each well to a final concentration of 100 nM. The labeled GTP was incubated for 45 minutes at room temperature. Following GTP incubation, wells were washed 3× in Buffer-I or Buffer-II and 200 μL of Buffer-I or Buffer-II was added to each well. Following washes, the amount of bound labeled-GTP was measured using a SpectraMax M3 (Molecular Devices).

In another test the test system is Akt phosphorylation. Description: Akt Phosphorylation Assay (western blot), Panc-1. The format is cell-based, human. As to conditions: at 10 μM, * = activation. In a few lines: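 Phospho-Akt (Ser473) was measured by western blot in lysates of KRas G12D Panc-1 cells exposed to test compound for 6 h at 37 °C, either at 10 μM final with 0.3% DMSO or as serial dilutions for IC50. One format used overnight 0.5% FBS starvation followed by a 15 min pulse of 1.5 ng/ml EGF. The other used cells in 10% FBS with no stimulation.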

The next test addresses T2, Rheb (Homo sapiens, UniProt Q15382).
T2 construct: made in house
Description: Rheb GTP Binding Domain Inhibition Assay. As to conditions: read-out: Rheb: % inh. How it is done:
as §1, §2, §3, §4

The test system of the next test is MAPK p38 phosphorylation. Description: MAPK p38 Activation Assay (western blot), Panc-1. The format is cell-based, human. The note with it: at 10 μM, Panc-1 pancreatic cancer cell line; starred symbols = activation. The procedure, abridged:
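Panc-1 cells (KRas G12D) were treated with compound for 6 h at 37 °C, at 10 μM or as serial dilutions for IC50, with 0.3% DMSO. Method 1 used overnight serum-starved cells (0.5% FBS) stimulated with 1.5 ng/ml EGF for 15 min; Method 2 used unstimulated cells in 10% FBS. Phospho-p38 (Thr180/Tyr182) was detected by western blot.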

T2 sequence (Q15382 whole entry): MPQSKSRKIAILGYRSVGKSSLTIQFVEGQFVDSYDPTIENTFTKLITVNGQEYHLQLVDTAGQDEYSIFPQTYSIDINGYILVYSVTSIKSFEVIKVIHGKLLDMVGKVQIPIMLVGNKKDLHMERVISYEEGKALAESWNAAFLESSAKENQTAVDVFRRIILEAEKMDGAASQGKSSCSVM
T1 sequence (P60953 whole entry): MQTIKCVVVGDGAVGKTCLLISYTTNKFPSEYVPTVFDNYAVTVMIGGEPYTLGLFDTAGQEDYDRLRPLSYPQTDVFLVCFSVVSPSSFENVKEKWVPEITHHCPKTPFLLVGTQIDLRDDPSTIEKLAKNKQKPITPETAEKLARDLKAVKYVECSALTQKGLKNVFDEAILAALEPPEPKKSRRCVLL

For the molecule `COc1cc(Nc2nc(-c3nccn3C)nn3cc(-c4ccn(C(C)C)n4)c(C)c23)n[nH]1` [Compound 51, 6-(1-Isopropyl-1H-pyrazol-3-yl)-N-(5-methoxy-1H-pyrazol-3-yl)-5-methyl-2-(1-methyl-1H-imidazol-2-yl)pyrrolo[2,1-f][1,2,4]triazin-4-amine], the inhibition at 20 µM at cdc42 and on Rheb was 50 to 75% throughout. Besides, the “% inh of Akt phosphorylation in Panc-1” value in the test on Akt phosphorylation is on record as “D* (85-100% activation)”. Also, the “% inh of MAPK p38 in Panc-1” value in the test on MAPK p38 phosphorylation is “H* (H* ≥ 100% activation)”.
Regarding `Cc1c(-c2ccn(C(C)C)n2)cn2nc(-c3nccn3C)nc(Nc3ccn(C(C)C)n3)c12` [Compound 72, N,6-bis(1-Isopropyl-1H-pyrazol-3-yl)-5-methyl-2-(1-methyl-1H-imidazol-2-yl)pyrrolo[2,1-f][1,2,4]triazin-4-amine], the inhibition at 20 µM on cdc42 and at Rheb was 50 to 75% in each case. In addition, the “% inh of Akt phosphorylation in Panc-1” value in the test on Akt phosphorylation is “D* (85-100% activation)”. Further, the “% inh of MAPK p38 in Panc-1” value in the test on MAPK p38 phosphorylation is “H* (H* ≥ 100% activation)”.
On to `Cc1c(-c2ccn(C(C)C)n2)cn2nc(-c3nccn3C)nc(Nc3nc(C4CC4)no3)c12` [Compound 70, 3-Cyclopropyl-N-(6-(1-isopropyl-1H-pyrazol-3-yl)-5-methyl-2-(1-methyl-1H-imidazol-2-yl)pyrrolo[2,1-f][1,2,4]triazin-4-yl)-1,2,4-oxadiazol-5-amine], for which the inhibition at 20 µM at cdc42 and on Rheb was 1 to 25% throughout. Further, the “% inh of Akt phosphorylation in Panc-1” value in the test with Akt phosphorylation is listed as “C* (46-84% activation)”. Besides, the “% inh of MAPK p38 in Panc-1” value with MAPK p38 phosphorylation is reported as “H* (H* ≥ 100% activation)”.
On to `COc1cc(Nc2nc(-c3nccn3C)nn3cc(-c4cccc(OC)n4)c(C)c23)ncn1` [Compound 65, 6-(6-Methoxypyridin-2-yl)-N-(6-methoxypyrimidin-4-yl)-5-methyl-2-(1-methyl-1H-imidazol-2-yl)pyrrolo[2,1-f][1,2,4]triazin-4-amine], for which the inhibition at 20 µM is 26 to 49% at cdc42 and 0% on Rheb. For the same molecule, the “% inh of Akt phosphorylation in Panc-1” value in the test on Akt phosphorylation is on record as “D* (85-100% activation)”. Moreover, the “% inh of MAPK p38 in Panc-1” value in the test on MAPK p38 phosphorylation is on record as “H* (H* ≥ 100% activation)”.
As for `COc1cccc(-c2cn3nc(-c4nccn4C)nc(N[C@H]4C[C@H](OC)C4)c3c2-c2ccccc2)c1Cl` [Compound 32, 6-(2-Chloro-3-methoxyphenyl)-N-((1r,3r)-3-methoxycyclobutyl)-2-(1-methyl-1H-imidazol-2-yl)-5-phenylpyrrolo[2,1-f][1,2,4]triazin-4-amine], the inhibition at 20 µM on cdc42 lay in the range of 1 to 25%; at Rheb it was 26 to 49%. In addition, the “% inh of Akt phosphorylation in Panc-1” value with Akt phosphorylation is “D (85-100% inhibition)”. In the test with MAPK p38 phosphorylation, the “% inh of MAPK p38 in Panc-1” value is recorded as “H (H = 100% inhibition)”.
Taken in the same sequence, the figures for `COc1ccnc(Nc2nc(-c3nccn3C)nn3cc(-c4ccn(C(C)C)n4)c(C)c23)c1` [Compound 58, 6-(1-Isopropyl-1H-pyrazol-3-yl)-N-(4-methoxypyridin-2-yl)-5-methyl-2-(1-methyl-1H-imidazol-2-yl)pyrrolo[2,1-f][1,2,4]triazin-4-amine] were 76 to 100%, 76 to 100%, “A* (1-25% activation)” and “G* (G* = 75-99% activation)”.
Take `COc1ccc(Nc2nc(-c3nccn3C)nn3cc(-c4ccn(C(C)C)n4)c(C)c23)cn1` [Compound 71, 6-(1-Isopropyl-1H-pyrazol-3-yl)-N-(6-methoxypyridin-3-yl)-5-methyl-2-(1-methyl-1H-imidazol-2-yl)pyrrolo[2,1-f][1,2,4]triazin-4-amine]: the inhibition at 20 µM at cdc42 and at Rheb was 1 to 25% each time. For the same molecule, the “% inh of Akt phosphorylation in Panc-1” value in the test with Akt phosphorylation is given as “D* (85-100% activation)”. Besides, in the test with MAPK p38 phosphorylation, the “% inh of MAPK p38 in Panc-1” value is recorded as “H* (H* ≥ 100% activation)”.

The values are drawn from patent US12459951B2, “Compounds that interact with RAS superfamily proteins for treatment of cancers, inflammatory diseases, rasopathies, and fibrotic disease” (SHY Therapeutics, LLC, priority 2022, dated 2025).
